The record followed here is the Kinase Knowledgebase extract (Sharma et al. 2016).

As usually defined, the pIC50 is −log10 of the IC50, conventionally taken in molar units. Read a low pIC50 as a high IC50.

pIC50: −log10 of the molar value.

The assay has as its target MAPK14 (human) (UniProt Q16539). Briefly: Inhibition of MAPK14 Kinase Activtiy.

MAPK14 (human), sequence (Q16539 whole entry, looked up): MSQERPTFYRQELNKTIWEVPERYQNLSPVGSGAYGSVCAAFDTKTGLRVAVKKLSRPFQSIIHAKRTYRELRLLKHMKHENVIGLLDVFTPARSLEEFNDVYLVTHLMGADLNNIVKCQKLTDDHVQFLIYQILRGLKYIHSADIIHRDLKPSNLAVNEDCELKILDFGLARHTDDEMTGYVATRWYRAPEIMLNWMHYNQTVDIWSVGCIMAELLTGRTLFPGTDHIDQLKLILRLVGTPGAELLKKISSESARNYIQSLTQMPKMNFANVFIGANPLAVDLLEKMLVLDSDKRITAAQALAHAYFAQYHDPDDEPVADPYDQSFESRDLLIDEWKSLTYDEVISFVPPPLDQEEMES

`CC(C)C[C@H](NCCCOc1cc(-c2ccc(F)cc2Cl)c2ccc(=O)n(-c3c(Cl)cccc3Cl)c2c1)C(=O)O` showed a pIC50 greater than 7.00.
`CC(C)(C)OC[C@H](NCCCOc1cc(-c2ccc(F)cc2Cl)c2ccc(=O)n(-c3c(Cl)cccc3Cl)c2c1)C(=O)O` showed a pIC50 greater than 7.00.
Compound `CC(C)(C)OC[C@H](NCCCOc1cc(-c2ccc(F)cc2Cl)c2ccc(=O)n(-c3c(Cl)cccc3Cl)c2c1)C(=O)OC1CCCC1` gave a negative logarithm of the IC50 (pIC50) greater than 7.00.
On to `CC(C)C[C@H](NCCc1cc(-c2ccc(F)cc2Cl)c2ccc(=O)n(-c3c(F)cccc3F)c2c1)C(=O)O`, for which the pIC50 was greater than 7.00.
For `O=C(O)[C@@H](NCCCOc1cc(-c2ccc(F)cc2Cl)c2ccc(=O)n(-c3c(F)cccc3F)c2c1)c1ccccc1` the value was greater than 7.00; for `CC(C)C[C@H](NCCCOc1cc(-c2ccc(F)cc2Cl)c2ccc(=O)n(-c3c(F)cccc3F)c2c1)C(=O)O`, greater than 7.00; for `O=C(O)[C@@H](NCCCOc1cc(-c2ccc(F)cc2Cl)c2ccc(=O)n(-c3c(Cl)cccc3Cl)c2c1)c1ccccc1`, greater than 7.00.
`CC(C)C[C@H](NC[C@H](O)COc1cc(-c2ccc(F)cc2Cl)c2ccc(=O)n(-c3c(F)cccc3F)c2c1)C(=O)O` showed a pIC50 greater than 7.00.
`CC(C)C[C@H](NC1CCC(c2cc(-c3ccc(F)cc3Cl)c3c(c2)N(c2c(Cl)cccc2Cl)C(=O)CC3)CC1)C(=O)O` (stereo not given in full) gave a pIC50 greater than 7.00.
`CC(C)C[C@H](NCCCOc1cc(-c2ccc(F)cc2Cl)c2ccc(=O)n(-c3c(Cl)cccc3Cl)c2c1)C(=O)OC1CCN(C)CC1` showed a pIC50 greater than 7.00.
`CC(C)C[C@H](NCCCOc1cc(-c2ccc(F)cc2F)c2ccc(=O)n(-c3c(F)cccc3F)c2c1)C(=O)O` had a pIC50 greater than 7.00.
For the compound `CC(C)C[C@H](NCCCOc1cc(-c2ccc(F)cc2Cl)c2ccc(=O)n(-c3c(Cl)cccc3Cl)c2c1)C(=O)OC1CCCC1`, the pIC50 was greater than 7.00.
Take `CC(C)(C)[C@H](NCCCOc1cc(-c2ccc(F)cc2Cl)c2ccc(=O)n(-c3c(Cl)cccc3Cl)c2c1)C(=O)O`: the pIC50 is greater than 7.00.
For the compound `CC(C)C[C@H](NCCCOc1cc(-c2ccc(F)cc2Cl)c2ccc(=O)n(-c3c(Cl)cccc3Cl)c2c1)C(=O)OC(C)C`, the pIC50 is greater than 7.00.
The compound `CC(C)C[C@H](NCCCOc1cc(-c2ccc(F)cc2Cl)c2ccc(=O)n(-c3ccccc3)c2c1)C(=O)O` gave a negative logarithm of the IC50 (pIC50) greater than 7.00.
`CC(C)C[C@H](NCCc1cc(-c2ccc(F)cc2Cl)c2ccc(=O)n(-c3c(Cl)cccc3Cl)c2c1)C(=O)O`: the pIC50 is greater than 7.00.
With `CC(C)C[C@H](NC[C@@H](O)COc1cc(-c2ccc(F)cc2Cl)c2ccc(=O)n(-c3c(F)cccc3F)c2c1)C(=O)O`, the pIC50 was greater than 7.00.
For `CC(C)C[C@H](NCCCCCOc1cc(-c2ccc(F)cc2Cl)c2ccc(=O)n(-c3c(Cl)cccc3Cl)c2c1)C(=O)O` the value was greater than 7.00.
In the case of `O=C(O)[C@@H](NCCCOc1cc(-c2ccc(F)cc2Cl)c2ccc(=O)n(-c3c(Cl)cccc3Cl)c2c1)C1CCCCC1` it was greater than 7.00; in that of `O=C(O)[C@@H](NCCCOc1cc(-c2ccc(F)cc2Cl)c2ccc(=O)n(-c3c(F)cccc3F)c2c1)C1CCCCC1`, greater than 7.00.
